Data: ChEMBL document CHEMBL2046443, “Desmethyl Macrolides: Synthesis and Evaluation of 4,10-Didesmethyl Telithromycin” (2012)
Values after ≈ are worked out from the molar mass of the structure shown.

Key:
Format in all cases: functional
Escherichia coli [1] = experiment: Antibacterial activity against wild type Escherichia coli DK/pKK3535
Escherichia coli [2] = experiment: Antibacterial activity against Escherichia coli DK harboring 23S rRNA A2058G mutant
Escherichia coli [3] = experiment: Antibacterial activity against Escherichia coli SQ171 harboring 23S rRNA A2058G mutant
Staphylococcus aureus [4] = experiment: Antibacterial activity against Staphylococcus aureus ATCC 33591 harboring ermA gene
Staphylococcus aureus [5] = experiment: Antibacterial activity against Staphylococcus aureus UCN14 harboring 23S rRNA A2058T mutant

| SMILES | MIC (Escherichia coli [1]) | MIC (Escherichia coli [2]) | MIC (Escherichia coli [3]) | MIC (Staphylococcus aureus [4]) | MIC (Staphylococcus aureus [5]) |
| --- | --- | --- | --- | --- | --- |
| CC[C@H]1OC(=O)[C@H](C)C(=O)C[C@@H](O[C@@H]2O[C@H](C)C[C@H](N(C)C)[C@H]2O)[C@@](C)(OC)CCC(=O)C[C@@H]2N(CCCCn3cnc(-c4cccnc4)c3)C(=O)O[C@@]21C | 32 µg/mL (≈ 41.6 µM) | – | – | – | – |
| CC[C@H]1OC(=O)[C@H](C)C(=O)C[C@@H](O[C@@H]2O[C@H](C)C[C@H](N(C)C)[C@H]2O)[C@](C)(OC)C[C@@H](C)C(=O)C[C@H]2N(CCCCn3cnc(-c4cccnc4)c3)C(=O)O[C@]12C | 8 µg/mL (≈ 10.2 µM) | 16 µg/mL (≈ 20.4 µM) | > 512 µg/mL | > 128 µg/mL | > 256 µg/mL |
| CC[C@H]1OC(=O)[C@H](C)C(=O)[C@H](C)[C@@H](O[C@@H]2O[C@H](C)C[C@H](N(C)C)[C@H]2O)[C@](C)(OC)C[C@@H](C)C(=O)[C@H](C)[C@H]2N(CCCCn3cnc(-c4cccnc4)c3)C(=O)O[C@]12C [TELITHROMYCIN] | 0.5 µg/mL (≈ 0.616 µM) | 1 µg/mL (≈ 1.23 µM) | > 512 µg/mL | > 128 µg/mL | > 128 µg/mL |
